Experimental data as given in US10098350B2, “Fungicidal amides” (E. I. DU PONT DE NEMOURS AND COMPANY, priority 2013, dated 2018).

How the values were obtained:
Format in all cases: in vivo
[1] = test system: Puccinia recondite f. sp. tritici; assay: Test D: wheat seedlings sprayed with test suspension, inoculated with Puccinia recondite f. sp. tritici (wheat leaf rust), visual disease rating
Source text: (§1) General protocol for preparing test suspensions for Tests A-E: the test compounds were first dissolved in acetone in an amount equal to 3% of the final volume and then suspended at the desired concentration (in ppm) in acetone and purified water (50/50 mix by volume) containing 250 ppm of the surfactant Trem® 014 (polyhydric alcohol esters). The resulting test suspensions were then used in Tests A-E. Samples were applied to plants at either a 10 ppm (**), 40 ppm, 50 ppm (*) or 200 ppm (#) test solution to the point of run-off on the test plants with the equivalent of a rate of 40 g ai/ha, 160 g ai/ha, 200 g ai/ha, or 800 g ai/ha, respectively.
The test suspension was sprayed to the point of run-off on wheat seedlings. The following day the seedlings were inoculated with a spore suspension of Puccinia recondite f. sp. tritici; (the causal agent of wheat leaf rust) and incubated in a saturated atmosphere at 20° C. for 24 h, and then moved to a growth chamber at 20° C. for 6 days, after which time visual disease ratings were made.
(§2) Results for Tests A-E are given in Table A. In the Table, a rating of 100 indicates 100% disease control and a rating of 0 indicates no disease control (relative to the controls). A dash (-) indicates no test results.

[2] = test system: Erysiphe graminis f. sp. tritici; assay: Test E: wheat seedlings sprayed with test suspension, inoculated with Erysiphe graminis f. sp. tritici (wheat powdery mildew), visual disease rating
Source text: as §1
The test suspension was sprayed to the point of run-off on wheat seedlings. The following day the seedlings were inoculated with a spore dust of Erysiphe graminis f. sp. tritici, (the causal agent of wheat powdery mildew) and incubated in a growth chamber at 20° C. for 7 or 8 days, after which time visual disease ratings were made.
as §2

Septoria tritici = assay: Test C: wheat seedlings sprayed with test suspension, inoculated with Septoria tritici (wheat leaf blotch), visual disease rating
Source text: as §1
The test suspension was sprayed to the point of run-off on wheat seedlings. The following day the seedlings were inoculated with a spore suspension of Septoria tritici (the causal agent of wheat leaf blotch) and incubated in a saturated atmosphere at 24° C. for 48 h, and then moved to a growth chamber at 20° C. for 21 days, after which time visual disease ratings were made.
as §2

[3] = test system: Stagonospora nodorum (also known as Septoria nodorum); assay: Test B: wheat seedlings sprayed with test suspension, inoculated with Stagonospora nodorum (wheat glume blotch), visual disease rating
Source text: as §1
The test suspension was sprayed to the point of run-off on wheat seedlings. The following day the seedlings were inoculated with a spore suspension of Stagonospora nodorum (also known as Septoria nodorum; the causal agent of wheat glume blotch) and incubated in a saturated atmosphere at 20° C. for 48 h, and then moved to a growth chamber at 20° C. for 6 days, after which time visual disease ratings were made.
as §2

[4] = Cmpd. No. unmarked, 100 = 100% disease control, 0 = no control relative to controls
[5] = Cmpd. No. marked '**' (other test rate; meaning of mark not shown)
[6] = Cmpd. No. marked '*' (other test rate; meaning of mark not shown)

| SMILES | Test D rating (% disease control) [1, 4] [%] | Test E rating (% disease control) [2, 4] [%] | Test C rating (% disease control) (Septoria tritici; [4]) [%] | Test B rating (% disease control) [3, 4] [%] | also measured |
| --- | --- | --- | --- | --- | --- |
| Cn1nc(C(F)F)c(C(=O)N(Cc2c(Cl)cc(-n3ccc(C(F)(F)F)n3)cc2Cl)C2CC2)c1F [compound 127] | 100 | 98 | 99 | 100 | – |
| Cn1nc(C(F)F)c(C(=O)N(Cc2ccc(-n3ccc(C(F)(F)F)n3)cc2OCC#N)C2CC2)c1F [compound 61] | 9 | 21 | 90 | 0 | – |
| CC(c1ccc(Cl)c(-n2ccc(C(F)(F)F)n2)c1)N(C(=O)c1cn(C)nc1C(F)F)C1CC1 (stereo not shown) [compound 126] | 68 | 48 | 92 | 92 | – |
| Cn1nc(C(F)F)c(C(=O)N(Cc2ccc(-n3cc(Cl)cn3)cc2Cl)C2CC2)c1F [compound 143] | 99 | 99 | 99 | 100 | – |
| Cn1nc(C(F)F)c(C(=O)N(Cc2ccc(-n3ccc(C(F)(F)F)n3)cc2Cl)C2CCC2)c1F [Compound 162] | – | – | – | – | Test D rating (% disease control) [1, 5]: 0%; Test E rating (% disease control) [2, 5]: 0%; Test C rating (% disease control) (Septoria tritici; [5]): 64%; Test B rating (% disease control) [3, 5]: 0% |
| Cn1nc(C(F)F)c(C(=O)N(Cc2cc(-n3ccc(C(F)(F)F)n3)ccc2Cl)C2CC2)c1F [compound 86] | – | – | – | – | Test D rating (% disease control) [1, 6]: 68%; Test E rating (% disease control) [2, 6]: 95%; Test C rating (% disease control) (Septoria tritici; [6]): 99%; Test B rating (% disease control) [3, 6]: 100% |
| Cc1ccc(-n2ccc(C(F)(F)F)n2)cc1C(C)N(C(=O)c1c(C(F)F)nn(C)c1F)C1CC1 (stereo not shown) [compound 52] | 93 | 99 | 99 | 100 | – |
| C#CCOc1cc(-n2ccc(C(F)(F)F)n2)ccc1CN(C(=O)c1c(C(F)F)nn(C)c1F)C1CC1 [compound 62] | 99 | 94 | 99 | 99 | – |
| Cn1nc(C(F)F)c(C(=O)N(Cc2cnc(-n3ccc(C(F)(F)F)n3)c(Cl)c2)C2CC2)c1F [compound 43] | 0 | 0 | 6 | 0 | – |
| CC(c1ncc(-n2cc(Cl)cn2)cc1Cl)N(C(=O)c1c(C(F)F)nn(C)c1F)C1CC1 (racemic) [compound 97] | – | – | – | – | Test D rating (% disease control) [1, 5]: 94%; Test E rating (% disease control) [2, 5]: 94%; Test C rating (% disease control) (Septoria tritici; [5]): 97%; Test B rating (% disease control) [3, 5]: 100% |
| Cn1cc(C(=O)N(Cc2ccc(-n3ccc(Br)n3)cc2Cl)C2CC2)c(C(F)F)n1 [compound 49] | 9 | 69 | 99 | 98 | – |
| Cn1nc(C(F)F)c(C(=O)N(Cc2ccc(-n3cnc(Cl)n3)cc2Cl)C2CC2)c1F [compound 146] | 0 | 0 | 94 | 0 | – |
| Cn1nc(C(F)F)c(C(=O)N(Cc2c(Cl)cc(-n3cccn3)cc2Cl)C2CC2)c1F [compound 125] | 100 | 92 | 99 | 100 | – |
| Cc1cc(-n2ccc(C(F)(F)F)n2)cnc1CN(C(=O)c1cn(C)nc1C(F)F)C1CC1 [compound 124] | 0 | 73 | 94 | 0 | – |
| COc1ccc(-n2ccc(C(F)(F)F)n2)cc1C(C)N(C(=O)c1c(C(F)F)nn(C)c1F)C1CC1 (stereo not shown) [compound 142] | – | – | – | – | Test D rating (% disease control) [1, 6]: 83%; Test E rating (% disease control) [2, 6]: 98%; Test C rating (% disease control) (Septoria tritici; [6]): 97%; Test B rating (% disease control) [3, 6]: 100% |
| CC(c1cc(-n2ccc(C(F)(F)F)n2)cc(C(F)(F)F)c1)N(C(=O)c1c(C(F)F)nn(C)c1F)C1CC1 (stereo not shown) [compound 56] | 86 | 92 | 97 | 100 | – |
| COc1ccc(C(C)N(C(=O)c2cn(C)nc2C(F)F)C2CC2)cc1-n1ccc(C(F)(F)F)n1 (stereo not shown) [compound 44] | 0 | 0 | 87 | 78 | – |
| Cc1ncn(-c2ccc(CN(C(=O)c3c(C(F)F)nn(C)c3F)C3CC3)c(Cl)c2)n1 [compound 65] | 0 | 0 | 98 | 87 | – |
| CC(c1cc(-n2ccc(C(F)(F)F)n2)ccc1[N+](=O)[O-])N(C(=O)c1cn(C)nc1C(F)F)C1CC1 (stereo not shown) [compound 129] | 0 | 0 | 10 | 0 | – |
| Cn1cc(C(=O)N(Cc2c(F)cc(-n3ccc(C(F)(F)F)n3)cc2F)C2CC2)c(C(F)F)n1 [compound 71] | 0 | 91 | 99 | 92 | – |
| CC(c1cc(-n2ccc(C(F)(F)F)n2)ccc1[N+](=O)[O-])N(C(=O)c1c(C(F)F)nn(C)c1F)C1CC1 (stereo not shown) [compound 134] | – | – | – | – | Test D rating (% disease control) [1, 6]: 68%; Test E rating (% disease control) [2, 6]: 0%; Test C rating (% disease control) (Septoria tritici; [6]): 43%; Test B rating (% disease control) [3, 6]: 94% |
| Cn1nc(C(F)F)c(C(=O)N(Cc2ccc(-n3cccn3)cc2Cl)C2CC2)c1F [compound 46] | 94 | 98 | 99 | 100 | – |
